Here are results for 24 compounds from ChEMBL document CHEMBL4811245, “Design, synthesis and biological evaluation of brain penetrant benzazepine-based histone deacetylase 6 inhibitors for alleviating stroke-induced brain infarction” (Eur J Med Chem, 2021).

The source made the active and inactive calls. No cut-off for these calls is given here.

In one data set the target is Histone deacetylase 1 (Homo sapiens, UniProt Q13547). Kind of data set: Inhibition of human HDAC1 preincubated for 15 mins followed by substrate addition by fluorescence-based assay.
Sequence of Histone deacetylase 1 (Q13547 whole entry): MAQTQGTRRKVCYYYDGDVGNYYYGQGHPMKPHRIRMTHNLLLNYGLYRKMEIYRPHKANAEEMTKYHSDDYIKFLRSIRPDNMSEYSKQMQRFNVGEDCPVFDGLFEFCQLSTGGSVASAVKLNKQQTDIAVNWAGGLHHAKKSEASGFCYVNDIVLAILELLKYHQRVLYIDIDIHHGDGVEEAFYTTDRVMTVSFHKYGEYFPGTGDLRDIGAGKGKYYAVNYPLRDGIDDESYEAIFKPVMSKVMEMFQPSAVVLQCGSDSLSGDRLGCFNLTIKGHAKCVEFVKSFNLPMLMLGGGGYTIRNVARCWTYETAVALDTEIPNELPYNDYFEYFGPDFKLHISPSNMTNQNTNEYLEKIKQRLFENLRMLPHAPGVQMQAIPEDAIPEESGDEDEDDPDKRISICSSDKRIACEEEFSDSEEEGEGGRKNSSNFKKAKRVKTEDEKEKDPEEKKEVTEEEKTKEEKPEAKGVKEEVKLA
Data set [1] has as its target T1, Protein deacetylase HDAC6 (Homo sapiens, UniProt Q9UBN7).
T1 sequence (Q9UBN7 whole entry): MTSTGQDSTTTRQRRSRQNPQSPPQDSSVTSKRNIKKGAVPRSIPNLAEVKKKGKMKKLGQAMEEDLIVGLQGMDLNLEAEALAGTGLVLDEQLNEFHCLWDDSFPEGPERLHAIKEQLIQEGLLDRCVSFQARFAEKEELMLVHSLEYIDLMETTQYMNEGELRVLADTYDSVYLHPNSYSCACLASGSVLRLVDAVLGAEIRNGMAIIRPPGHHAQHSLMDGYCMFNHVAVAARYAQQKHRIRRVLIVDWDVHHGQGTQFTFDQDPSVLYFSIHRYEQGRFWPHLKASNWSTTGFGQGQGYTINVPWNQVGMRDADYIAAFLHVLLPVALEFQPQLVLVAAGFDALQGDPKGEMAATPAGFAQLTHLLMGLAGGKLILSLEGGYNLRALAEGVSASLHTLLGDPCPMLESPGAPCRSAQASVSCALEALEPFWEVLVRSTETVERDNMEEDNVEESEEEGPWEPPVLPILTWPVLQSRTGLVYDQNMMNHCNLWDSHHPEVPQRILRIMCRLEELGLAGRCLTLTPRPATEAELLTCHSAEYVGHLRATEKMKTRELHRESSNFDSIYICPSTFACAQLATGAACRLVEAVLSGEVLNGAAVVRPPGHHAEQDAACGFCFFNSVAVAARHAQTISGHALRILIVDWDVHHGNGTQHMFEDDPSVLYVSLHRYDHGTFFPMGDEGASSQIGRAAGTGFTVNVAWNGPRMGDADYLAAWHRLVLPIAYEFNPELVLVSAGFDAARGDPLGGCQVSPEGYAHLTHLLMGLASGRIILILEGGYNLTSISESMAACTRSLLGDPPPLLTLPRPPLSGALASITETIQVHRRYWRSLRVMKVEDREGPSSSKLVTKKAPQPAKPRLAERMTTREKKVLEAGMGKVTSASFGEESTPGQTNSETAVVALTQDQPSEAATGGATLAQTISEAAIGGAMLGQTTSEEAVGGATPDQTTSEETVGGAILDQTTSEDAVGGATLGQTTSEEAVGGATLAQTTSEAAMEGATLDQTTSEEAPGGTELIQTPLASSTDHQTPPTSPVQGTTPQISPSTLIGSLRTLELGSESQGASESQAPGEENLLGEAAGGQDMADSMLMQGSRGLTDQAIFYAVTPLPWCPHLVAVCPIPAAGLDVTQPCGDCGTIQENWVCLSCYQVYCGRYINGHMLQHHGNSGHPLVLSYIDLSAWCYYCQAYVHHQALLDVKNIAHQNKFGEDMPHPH
Put plainly: Inhibition of human HDAC6 preincubated for 15 mins followed by substrate addition by fluorescence-based assay.

The subject of data set [2] is Rattus norvegicus. Put plainly: Neuroprotective activity in Sprague-Dawley rat middle cerebral artery occlusion model assessed as reduction in cerebral infarction at 25 mg/kg, ip after 24 hrs by TTC staining based assay (reference value: 21.22%). It counts as functional. Also on record: scale not given: the % may be the effect or the level left.
A short description of data set [3]: Ratio of drug concentration in brain to plasma of mouse at 5 to 50 mg/kg, ip after 2 hrs by HPLC/MS-MS analysis. It counts as ADME, organism-based. Particulars: dose 5-50 mg/kg, read-out: BPR.
In data set [4] the test system is Rattus norvegicus. Kind of data set: Neuroprotective activity in Sprague-Dawley rat middle cerebral artery occlusion model assessed as reduction in neurobehavioral defects at 25 mg/kg, ip after 24 hrs by TTC staining based assay. It counts as functional, organism-based.
Data set [5] can be described thus: in vivo. Particulars: C57, mouse, brain/plasma, ip, 20 mg/kg.
A short description of data set [6]: Drug concentration in brain of C57 mouse at 20 mg/kg, ip measured after 1 hr by LC/MS-MS analysis. It counts as ADME, organism-based. Particulars: read-out: Ct.
Data set [7] in a line: in vivo. Particulars: C57, mouse, brain/plasma, ip, 20 mg/kg. The source holds these as a separate data set.
A short description of data set [8]: Drug concentration in plasma of C57 mouse at 20 mg/kg, ip measured after 4 hrs by LC/MS-MS analysis. It counts as ADME, organism-based.
A short description of data set [9]: Drug concentration in brain of C57 mouse at 20 mg/kg, ip measured after 4 hrs by LC/MS-MS analysis. In kind it is ADME, organism-based. Particulars: read-out: Ct.
The nature of data set [10]: Drug concentration in plasma of C57 mouse at 20 mg/kg, ip measured after 1 hr by LC/MS-MS analysis. In kind it is ADME, organism-based.
Data set [11] can be described thus: Ratio of drug concentration in brain to plasma of Sprague-Dawley rat at 50 mg/kg, po measured after 60 to 180 mins by LC/MS-MS analysis. In kind it is ADME, organism-based. Particulars: time 60-180 min.
For data set [12], the system named is Rattus norvegicus. Kind of data set: Neuroprotective activity in Sprague-Dawley rat middle cerebral artery occlusion model assessed as reduction in neurobehavioral defects at 5 mg/kg, ip after 24 hrs by TTC staining based assay. In kind it is functional, organism-based.
Data set [13] concerns the target T2, Protein deacetylase HDAC6 (Homo sapiens) (UniProt Q9UBN7).
T2 sequence (whole entry): T1 sequence (Q9UBN7 whole entry)
Put plainly: Inhibition of HDAC6 in human SH-SY5Y cells assessed as fold increase in ratio of acetylated alpha-tubulin to alpha-tubulin at 10 uM incubated for 24 hrs by Western blot analysis. It counts as cell-based. For orientation: A western blot detects proteins with antibodies after separation by electrophoresis.

Data set [14] concerns the target T2, Protein deacetylase HDAC6 (Homo sapiens). Put plainly: Inhibition of HDAC6 in human SH-SY5Y cells assessed as increase in acetylated histone H3 levels at 0.1 to 10 uM incubated for 24 hrs by Western blot analysis. It counts as cell-based. Particulars: dose 0.1-10 µM.
For data set [15] the target is unchanged. Put plainly: Inhibition of HDAC6 in human SH-SY5Y cells assessed as increase in acetylated alpha-tubulin levels incubated for 24 hrs by Western blot analysis. Particulars: dose 0.1-10 µM. It counts as cell-based.
Data set [16] has the same target. Put plainly: Inhibition of HDAC6 in human SH-SY5Y cells assessed as fold increase in ratio of acetylated alpha-tubulin to alpha-tubulin at 1 uM incubated for 24 hrs by Western blot analysis. It counts as cell-based.
Data set [17] has the same target. Put plainly: Inhibition of HDAC6 in human SH-SY5Y cells assessed as fold increase in ratio of acetylated histone H3 to histone H3 at 10 uM incubated for 24 hrs by Western blot analysis. In kind it is cell-based.

Broadly, the IC50 is the concentration at which inhibition is half-maximal. As to `O=C(NO)c1ccc(CN2CCC[S+]([O-])c3ccccc32)cc1` (stereo not given), the IC50 at Histone deacetylase 1 turned out to be 166 nM; in [1], 13 nM.

With `O=C(NO)c1ccc(CN2CCCCc3ccccc32)cc1`, the IC50 is 392 nM against Histone deacetylase 1 and 6.4 nM in data set [1].

As to `CN1CCc2c(c3ccccc3n2Cc2ccc(C(=O)NO)cc2)C1` [TUBASTATIN A], the Activity with Rattus norvegicus [2] was 13.02%. In addition, the Kp at 2 h in data set [3] is 0.18. Besides, the outcome with Rattus norvegicus [4] was Active.

On to `O=C(NO)c1ccc(CN2CCCCc3ccc(C4CC4)cc32)cc1`, for which inhibition against Histone deacetylase 1 was half-maximal at 509 nM (IC50).

With `O=C(NO)c1cnc(NC2(c3cccc(F)c3)CCCCC2)nc1`, in data set [3], the Kp at 2 h worked out at 1.26.

`COc1cccc2c1CCN(Cc1ccc(C(=O)NO)cc1)CC2`: the IC50 was determined as 798 nM against Histone deacetylase 1 and 318 nM in data set [1].

With `COc1ccc2c(c1)CCN(Cc1ccc(C(=O)NO)cc1)CC2`, the IC50 worked out at 431 nM against Histone deacetylase 1 and 29 nM in data set [1].

In the case of `O=C(NO)c1ccc(CN2CCc3ccccc3CC2)cc1`, the IC50 stood at 804 nM at Histone deacetylase 1 and 255 nM in [1].

`COc1ccc2c(c1)N(Cc1ccc(C(=O)NO)cc1)CCCC2` showed a Kp at 1 h in “in vivo [5]” of 1.85. The concentration at 1 h in [6] was 957 ng/mL; in data set [10], 526 ng/mL. The same compound came in with a Kp at 4 h in “in vivo [7]” of 2.29. The concentration at 4 h was found to be 8.18 ng/mL in [8] and 18.7 ng/mL in data set [9]. The result in the data set with Rattus norvegicus [4] was Active.

For the compound `O=C(NO)c1ccc(CNc2cccc3cccnc23)cc1`, the Kp in data set [11] is 1.01.

For `O=C(NO)c1ccc(CN2CCCCc3ccc(-c4ccccc4)cc32)cc1`, at Histone deacetylase 1, it took 706 nM to reach half-maximal inhibition (IC50).

Consider `COc1ccc(Br)c2c1CCN(Cc1ccc(C(=O)NO)cc1)CC2`, for which the IC50 against Histone deacetylase 1 is 385 nM; in data set [1] it was 111 nM.

On to `O=C(NO)c1ccc(CN2CCCCc3ccc(F)cc32)cc1`, for which the IC50 stood at 761 nM against Histone deacetylase 1 and 19 nM in [1].

For the compound `COc1ccc(-c2ccccc2)c2c1CCN(Cc1ccc(C(=O)NO)cc1)CC2`, the IC50 against Histone deacetylase 1 is 826 nM; in data set [1], 497 nM.

In the case of `CCCCC1OC(=O)c2ccccc21` (stereo not given), the outcome in the data set with Rattus norvegicus [12] was Active.

Take `O=C(NO)c1ccc(CN2CCCc3cc(Cl)ccc32)cc1`: the concentration at 1 h turned out to be 468 ng/mL in data set [6] and 256 ng/mL in data set [10]. The concentration at 4 h in data set [8] was 4.13 ng/mL; in data set [9] it was 13.1 ng/mL.

`O=C(NO)c1cnc(NC2(c3ccccc3)CC2)nc1`: the Kp at 2 h in data set [3] amounted to 1.22.

On to `O=C(NO)c1ccc(CN2CCCc3ccccc3C2)cc1`, for which the IC50 against Histone deacetylase 1 stood at 1000 nM; in data set [1] it was 100 nM.

Turning to `COc1ccc(C2CC2)c2c1CCN(Cc1ccc(C(=O)NO)cc1)CC2`, the IC50 on Histone deacetylase 1 worked out at 502 nM.

With `O=C(NO)c1ccc(CN2CCCOc3ccccc32)cc1`, the Kp at 1 h in “in vivo [5]” worked out at 1.98. Also, the concentration at 1 h is 111 ng/mL in data set [6] and 59.4 ng/mL in data set [10]. Further, the Kp at 4 h in the data set “in vivo [7]” came out at 2.88. The concentration at 4 h in data set [8] was found to be 4.29 ng/mL; in data set [9], 12.2 ng/mL.

In the case of `COc1cc2c(cc1OC)N(Cc1ccc(C(=O)NO)cc1)CCCC2`, the IC50 at Histone deacetylase 1 stood at 295 nM; in data set [1], 14 nM.

Take `O=C(NO)c1ccc(CN2CCCSc3ccccc32)cc1`: the FC turned out to be 1.4 in data set [13], 1.3 in data set [16] and 1.1 in data set [17]. Also, in “in vivo [5]”, the Kp at 1 h came out at 2.3. The inhibition entry in [14] is “Active”. The Activity in the data set with Rattus norvegicus [2] stood at 11.47%. Further, in data set [15], the inhibition result was “Dose-Dependent Effect”. Moreover, the concentration at 1 h in [6] was found to be 220 ng/mL; in data set [10], 96.1 ng/mL. The compound also had a Kp at 4 h in the data set “in vivo [7]” of 2.35. Moreover, the concentration at 4 h in [8] stood at 7.03 ng/mL; in data set [9], 16.6 ng/mL. In addition, in [1], 1.8 nM corresponded to half-maximal inhibition (IC50). The outcome with Rattus norvegicus [4] was Active.

Regarding `Cc1ccc2c(c1)N(Cc1ccc(C(=O)NO)cc1)CCCC2`, the IC50 on Histone deacetylase 1 came out at 377 nM; in data set [1], 12 nM.

For the compound `O=C(NO)c1ccc(CN2CCCCc3cc(Cl)ccc32)cc1`, the figures for the IC50 (on Histone deacetylase 1; in data set [1]) were 819 nM and 37 nM, respectively.
